From US20220282217A1, “COMPOSITIONS AND METHODS FOR PREPARING T CELL COMPOSITIONS AND USES THEREOF” (priority 2019, published 2022)
Where two headings read alike, the source gives them in different places. Where a SMILES comes first, the peptide text is derived from it.

Experiments:
HLA-A02.01 [1] = target: HLA-A02.01 (Homo sapiens, UniProt P04439, D140Y/D185E/D98H/E176V/E277Q/G131W/G231S/I119V/I121R/I166T/I218V/L300P/L318F/N151K/N90K/P208A/P217A/Q86G/Q94H/R138H/R169H/T345S); experiment: Class I MHC peptide binding affinity (displacement of radiolabeled reference peptide); conditions: for Kd: EGFR T790M peptides, HLA allele A02.01, read-out: Affinity
Outline: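 Steps: form MHCI complexes carrying labeled reference peptide; add competitor peptides at graded doses; incubate 2 days; separate complex-bound from free label by size-exclusion chromatography and count what remains bound.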

HLA-A02.01 [2] = target: T1, HLA-A02.01 (Homo sapiens, UniProt P04439, D140Y/D185E/D98H/E176V/E277Q/G131W/G231S/I119V/I121R/I166T/I218V/N151K/N90K/P208A/P217A/Q86G/Q94H/R138H/R169H); experiment: Class I MHC peptide binding stability (pMHC-I dissociation, 125I-labeled light chain); conditions: for Stability (T1/2 (h)): allele A02.01; for Stability (half-life (hr.)): EGFR T790M peptides, HLA allele A02.01; for Measured stability: HLA Allele A02.01, time for half of the complexes to dissociate at 37° C.
T1 construct: made in house; host or cells: E. coli

[3] = allele A02.01, read-out: Observed Affinity (IC50, (nM))
[4] = Observed Affinity (IC50, (nM)), allele A02.01
[5] = Measured Affinity (nM), HLA Allele A02.01

IC50 (HLA-A02.01 [1]; [3]) [nM] | Stability (T1/2 (h)) (HLA-A02.01 [2]) [h] | SMILES | also measured
44 | 7.4 | CC(C)C[C@H](NC(=O)CN)C(=O)N[C@H](C(=O)N[C@@H](CC(=O)O)C(=O)N[C@@H](CCC(=O)O)C(=O)N[C@@H](CCC(N)=O)C(=O)N[C@@H](CCC(N)=O)C(=O)N[C@@H](CCC(=O)O)C(=O)N[C@H](C(=O)O)C(C)C)C(C)C | 
177 | 0.4 | CC[C@H](C)[C@H](NC(=O)[C@@H](N)CC(C)C)C(=O)N[C@@H](CCSC)C(=O)N[C@@H](CCC(N)=O)C(=O)N[C@@H](CC(C)C)C(=O)N[C@@H](CCSC)C(=O)N1CCC[C@H]1C(=O)N[C@@H](Cc1ccccc1)C(=O)NCC(=O)N[C@@H](CS)C(=O)O | Kd (HLA-A02.01 [1]): 132 nM; Stability (half-life (hr.)) (HLA-A02.01 [2]): 22.88 min
7770 | 0.5 | CC(C)C[C@H](NC(=O)[C@H](CO)NC(=O)[C@H](CC(N)=O)NC(=O)[C@H](CS)NC(=O)[C@H](CCC(=O)O)NC(=O)[C@H](Cc1c[nH]cn1)NC(=O)[C@H](CC(C)C)NC(=O)[C@@H](NC(=O)[C@@H](N)CCC(N)=O)C(C)C)C(=O)O | 
187 | 0.9 | CC(C)[C@H](N)C(=O)N[C@H](C(=O)N1CCC[C@H]1C(=O)N[C@@H](CS)C(=O)N[C@@H](CCC(=O)O)C(=O)N1CCC[C@H]1C(=O)N1CCC[C@H]1C(=O)N[C@@H](CCC(=O)O)C(=O)N[C@H](C(=O)O)C(C)C)C(C)C | 
1760 | 6.6 | CC(C)C[C@H](NC(=O)[C@@H](NC(=O)[C@H](CC(=O)O)NC(=O)[C@H](CC(C)C)NC(=O)[C@@H](NC(=O)[C@@H](N)Cc1ccc(O)cc1)[C@@H](C)O)C(C)C)C(=O)N[C@@H](CCC(=O)O)C(=O)N[C@@H](CCCNC(=N)N)C(=O)N[C@@H](CS)C(=O)O | 
226 | 0.8 | CC[C@H](C)[C@H](NC(=O)[C@H](Cc1ccccc1)NC(=O)[C@H](CS)NC(=O)[C@H](CO)NC(=O)[C@H](CC(N)=O)NC(=O)[C@H](CO)NC(=O)[C@H](C)NC(=O)[C@H](CO)NC(=O)[C@H](CC(C)C)NC(=O)[C@H](C)N)C(=O)O (H-ALSASNSCFI-OH; N-terminus and C-terminus assumed) | 
79 | 27.3 | CC(C)C[C@H](NC(=O)[C@H](C)N)C(=O)N[C@@H](CO)C(=O)N[C@@H](CCC(=O)O)C(=O)N[C@@H](Cc1c[nH]cn1)C(=O)N[C@@H](CS)C(=O)N1CCC[C@H]1C(=O)N[C@H](C(=O)N[C@H](C(=O)O)[C@@H](C)O)[C@@H](C)O (H-ALSEHCPTT-OH; N-terminus and C-terminus assumed) | 
219 | 24 | CC(C)C[C@H](NC(=O)[C@H](CC(C)C)NC(=O)[C@@H](NC(=O)[C@H](CC(=O)O)NC(=O)[C@H](C)NC(=O)[C@H](CC(C)C)NC(=O)[C@@H](N)CS)C(C)C)C(=O)N[C@@H](CO)C(=O)N[C@H](C(=O)O)C(C)C (H-CLADVLLSV-OH; N-terminus and C-terminus assumed) | 
3 | 6.8 | CC[C@H](C)[C@H](NC(=O)[C@H](Cc1ccc(O)cc1)NC(=O)[C@H](CCC(=O)O)NC(=O)CNC(=O)[C@H](CO)NC(=O)[C@@H](N)Cc1ccccc1)C(=O)N1CCC[C@H]1C(=O)N[C@H](C(=O)N[C@H](C(=O)O)C(C)C)[C@@H](C)O (H-FSGEYIPTV-OH; N-terminus and C-terminus assumed) | 
10 | 14.2 | CC(C)C[C@H](NC(=O)CN)C(=O)N[C@@H](CC(C)C)C(=O)N[C@@H](C)C(=O)N[C@@H](Cc1ccccc1)C(=O)N[C@@H](Cc1c[nH]c2ccccc12)C(=O)N[C@@H](CC(=O)O)C(=O)N[C@@H](CO)C(=O)N[C@@H](CCC(N)=O)C(=O)N[C@H](C(=O)O)C(C)C (H-GLLAFWDSQV-OH; N-terminus and C-terminus assumed) | 
558 | 0.4 | CSCC[C@H](NC(=O)[C@H](CCC(=O)O)NC(=O)[C@H](CC(C)C)NC(=O)[C@H](CC(C)C)NC(=O)[C@H](CC(C)C)NC(=O)CN)C(=O)N[C@@H](CC(C)C)C(=O)N[C@@H](CC(=O)O)C(=O)N[C@@H](C)C(=O)O (H-GLLLEMLDA-OH; N-terminus and C-terminus assumed) | 
779 | 1.3 | CC(C)C[C@H](NC(=O)[C@H](Cc1ccccc1)NC(=O)[C@@H](NC(=O)[C@H](Cc1ccc(O)cc1)NC(=O)[C@@H](NC(=O)CN)C(C)C)[C@@H](C)O)C(=O)N1CCC[C@H]1C(=O)N[C@@H](CO)C(=O)N[C@H](C(=O)O)[C@@H](C)O (H-GVYTFLPST-OH; N-terminus and C-terminus assumed) | 
223 | 0.5 | CC[C@H](C)[C@H](N)C(=O)N[C@@H](CC(C)C)C(=O)N[C@@H](CCSC)C(=O)N[C@@H](CCC(=O)O)C(=O)N[C@@H](CC(C)C)C(=O)N[C@@H](CCSC)C(=O)N[C@@H](C)C(=O)NCC(=O)NCC(=O)O (H-ILMELMAGG-OH; N-terminus and C-terminus assumed) | 
1610 | 0.4 | CC[C@H](C)[C@H](N)C(=O)N[C@@H](CCSC)C(=O)N[C@@H](CCC(N)=O)C(=O)N[C@@H](CC(C)C)C(=O)N[C@@H](CCSC)C(=O)N1CCC[C@H]1C(=O)N[C@@H](Cc1ccccc1)C(=O)NCC(=O)N[C@@H](CS)C(=O)O (H-IMQLMPFGC-OH; N-terminus and C-terminus assumed) | Kd (HLA-A02.01 [1]): 1210 nM; Stability (half-life (hr.)) (HLA-A02.01 [2]): 22.21 min
68 | 12.8 | CC(C)C[C@H](NC(=O)[C@@H](N)CC(C)C)C(=O)N[C@@H](C)C(=O)N[C@@H](Cc1ccccc1)C(=O)N[C@@H](Cc1c[nH]c2ccccc12)C(=O)N[C@@H](CC(=O)O)C(=O)N[C@@H](CO)C(=O)N[C@@H](CCC(N)=O)C(=O)N[C@H](C(=O)O)C(C)C (H-LLAFWDSQV-OH; N-terminus and C-terminus assumed) | 
311 | 8.9 | CSCC[C@H](NC(=O)[C@H](CC(C)C)NC(=O)[C@H](CCC(=O)O)NC(=O)[C@H](CCSC)NC(=O)[C@@H](N)CC(C)C)C(=O)N[C@@H](C)C(=O)NCC(=O)NCC(=O)N[C@@H](CC(=O)O)C(=O)N[C@@H](CC(C)C)C(=O)O (H-LMELMAGGDL-OH; N-terminus and C-terminus assumed) | 
 |  | CC(C)C[C@H](N)C(=O)N[C@H](C(=O)N[C@H](C(=O)N[C@H](C(=O)NCC(=O)N[C@@H](C)C(=O)N[C@@H](CC(=O)O)C(=O)NCC(=O)N[C@H](C(=O)O)C(C)C)C(C)C)C(C)C)C(C)C (H-LVVVGADGV-OH; N-terminus and C-terminus assumed) | IC50 (HLA-A02.01 [1]; [5]): 977 nM; IC50 (HLA-A02.01 [1]; [4]): 1190 nM; Measured stability (HLA-A02.01 [2]): 0.0 h
 | 0.8 | CSCC[C@H](NC(=O)[C@H](CS)NC(=O)[C@H](CO)NC(=O)[C@H](CO)NC(=O)[C@H](CC(N)=O)NC(=O)[C@H](CS)NC(=O)[C@H](CCSC)NC(=O)[C@@H](N)Cc1ccc(O)cc1)C(=O)NCC(=O)N[C@@H](CO)C(=O)O (H-YMCNSSCMGS-OH; N-terminus and C-terminus assumed) | 

SMILES | IC50 (HLA-A02.01 [1]; [3]) [nM] | Stability (T1/2 (h)) (HLA-A02.01 [2]) [h] | also measured
CC[C@H](C)[C@H](NC(=O)[C@@H](NC(=O)[C@H](CC(C)C)NC(=O)[C@@H](NC(=O)[C@@H]1CCCN1C(=O)[C@H](CCCNC(=N)N)NC(=O)[C@H](CCC(N)=O)NC(=O)[C@H](CC(N)=O)NC(=O)[C@H](CCSC)NC(=O)CN)[C@@H](C)CC)[C@@H](C)O)C(=O)O | 709 | 0.4 | 
CC[C@H](C)[C@H](NC(=O)[C@@H](NC(=O)[C@H](CC(C)C)NC(=O)[C@@H](NC(=O)[C@@H]1CCCN1C(=O)[C@H](CCCNC(=N)N)NC(=O)[C@H](Cc1c[nH]c2ccccc12)NC(=O)[C@H](CC(N)=O)NC(=O)[C@H](CCSC)NC(=O)CN)[C@@H](C)CC)[C@@H](C)O)C(=O)O | 282 | 0.5 | 
CC[C@H](C)[C@H](NC(=O)[C@H](Cc1ccc(O)cc1)NC(=O)[C@H](CC(C)C)NC(=O)[C@@H](N)CC(C)C)C(=O)N[C@H](C(=O)N[C@@H](C)C(=O)N[C@@H](Cc1ccccc1)C(=O)N[C@@H](Cc1ccccc1)C(=O)N[C@@H](CC(C)C)C(=O)O)[C@@H](C)O | 713 | 17 | 
CC(C)[C@H](NC(=O)[C@H](CO)NC(=O)[C@H](Cc1ccccc1)NC(=O)[C@H](Cc1ccccc1)NC(=O)[C@H](Cc1ccccc1)NC(=O)[C@H](Cc1ccccc1)NC(=O)[C@H](CS)NC(=O)[C@@H](NC(=O)[C@@H](N)CO)C(C)C)C(=O)O | 175 | 9.4 | 
CSCC[C@H](NC(=O)[C@@H](NC(=O)[C@H](Cc1ccc(O)cc1)NC(=O)[C@H](C)NC(=O)[C@H](CCSC)NC(=O)[C@@H](NC(=O)[C@@H](N)Cc1ccc(O)cc1)C(C)C)C(C)C)C(=O)N[C@@H](C)C(=O)NCC(=O)N[C@H](C(=O)O)C(C)C | 57 | 20.9 | 
CC(C)C[C@H](NC(=O)[C@@H](N)CCCCN)C(=O)NCC(=O)NCC(=O)NCC(=O)N[C@@H](CCC(N)=O)C(=O)N[C@@H](Cc1c[nH]cn1)C(=O)NCC(=O)N[C@@H](CCC(=O)O)C(=O)N[C@H](C(=O)O)C(C)C (H-KLGGGQHGEV-OH; N-terminus and C-terminus assumed) |  | 0.4 | IC50 (HLA-A02.01 [1]; [4]): 387 nM
CC(C)C[C@H](N)C(=O)N[C@H](C(=O)N[C@H](C(=O)N[C@H](C(=O)NCC(=O)N[C@@H](C)C(=O)N[C@@H](CS)C(=O)NCC(=O)N[C@H](C(=O)O)C(C)C)C(C)C)C(C)C)C(C)C (H-LVVVGACGV-OH; N-terminus and C-terminus assumed) |  | 0.6 | IC50 (HLA-A02.01 [1]; [5]): 667 nM; IC50 (HLA-A02.01 [1]; [4]): 1210 nM; Measured stability (HLA-A02.01 [2]): 0.6 h
